How the values were obtained:
[1] = test system: corn rust; assay: Protectant activity in vivo (whole plant) against corn rust
Method: (§1) The method is as followed: The whole plant is used in this test. The compound is dissolved in a proper solvent to get mother solution. The proper solvent is selected from acetone, methanol, DMF and so on according to their dissolving capability to the sample. The volume rate of solvent and testing solution (v/v) is equal to or less than 5%. The mother solution is diluted with water containing 0.1% tween-80 to get the testing solution whose concentration is designed. The testing solution is sprayed to the host plant by a special plant sprayer. The plant is inoculated with fungus after 24 hours. According to the infecting characteristic of fungus, the plant is stored in a humidity chamber and then transferred into greenhouse after infection is finished. And the other plants are placed in greenhouse directly. The activity of compound is obtained by eyeballing after 7 days in common.

[2] = test system: cucumber gray mold; assay: Activity in vitro (96-well, High Through Put): inhibition rate against cucumber gray mold; assay type: cell-based; conditions: for inhibition rate against cucumber gray mold: in vitro, dose 0.9 mg/L
Method: The method is as followed: High Through Put is used in the test. The compound is dissolved in a proper solvent to become a testing solution whose concentration is designed. The solvent is selected from acetone, methanol, DMF and so on according to their dissolving capability to the sample. In a no animalcule condition, the testing solution and pathogens suspension are added into the cells of 96 cells culture board, which then should be placed in the constant temperature box. 24 hours later, pathogen germination or growth can be investigated by eyeballing, and the activity in vitro of the compound is evaluated based on germination or growth of control treatment.

[3] = test system: cucumber downy mildew; assay: Protectant activity in vivo (whole plant) against cucumber downy mildew
Method: as §1

Structure (SMILES) | protectant activity against corn rust in vivo ([1]; dose 400 mg/L) [%] | protectant activity against cucumber downy mildew in vivo ([3]; dose 400 mg/L) [%] | also measured
N#Cc1c(Cl)c(Cl)c(Nc2ccc([N+](=O)[O-])cc2Cl)c(Cl)c1C#N [Compound A-15] | 100 | 100 | the inhibition rate against cucumber gray mold (%) ([2]; 0.3 mg/L): 100%; the inhibition rate against cucumber gray mold (%) ([2]; 0.9 mg/L): 100%; the inhibition rate against cucumber gray mold (%) ([2]; 2.8 mg/L): 100%; the inhibition rate against cucumber gray mold (%) ([2]; 8.3 mg/L): 100%; protectant activity against cucumber downy mildew in vivo ([3]; dose 50 mg/L): 100%; protectant activity against cucumber downy mildew in vivo ([3]; dose 100 mg/L): 100%
N#Cc1c(Cl)c(Cl)c(Nc2cc(C(F)(F)F)ccc2Cl)c(Cl)c1C#N [Compound A-19] | 80 | 100 | –
N#Cc1c(Cl)c(Cl)c(Nc2ccc(Cl)cc2[N+](=O)[O-])c(Cl)c1C#N [Compound A-23] | 80 | 100 | –
N#Cc1cc(C#N)c(Cl)c(Nc2c(Cl)c(Cl)c(C#N)c(C#N)c2Cl)c1 [Compound A-59] | 100 | 100 | –
N#Cc1c(Cl)c(Cl)c(Nc2cc(Cl)cnc2Cl)c(Cl)c1C#N [Compound A-85] | 80 | 100 | –
Cc1ccccc1Nc1c(Cl)c(Cl)c(C#N)c(Cl)c1C#N [Compound B-1] | 100 | – | –
N#Cc1c(Cl)c(Cl)c(Nc2ccc(F)cc2F)c(C#N)c1Cl [Compound B-14] | 100 | 100 | –
N#Cc1cc([N+](=O)[O-])ccc1Nc1c(Cl)c(Cl)c(C#N)c(Cl)c1C#N [Compound B-38] | 100 | 100 | –
N#Cc1c(Cl)c(Cl)c(Nc2c(Cl)cc([N+](=O)[O-])cc2Br)c(C#N)c1Cl [Compound B-55] | 100 | – | the protectant activity (%) against corn rust ([1]; 6.25 mg/L): 0%; the protectant activity (%) against corn rust ([1]; 25 mg/L): 25%; the protectant activity (%) against corn rust ([1]; 100 mg/L): 100%; the protectant activity (%) against corn rust ([1]; 400 mg/L): 100%; protectant activity against corn rust in vivo ([1]; dose 100 mg/L): 100%
Cc1c(Cl)c([N+](=O)[O-])cc([N+](=O)[O-])c1Nc1c(Cl)c(Cl)c(C#N)c(Cl)c1C#N [Compound B-68] | – | 100 | inhibition rate against cucumber gray mold [2]: 80%; protectant activity against cucumber downy mildew in vivo ([3]; dose 100 mg/L): 100%
CCN(CC)c1c(Cl)c(Nc2ccccc2[N+](=O)[O-])c(C#N)c(Cl)c1C#N [Compound B-70] | 100 | – | –
N#Cc1c(F)c(F)c(Nc2c(Cl)cc(C(F)(F)F)cc2Cl)c(C#N)c1F [Compound B-111] | 100 | 100 | protectant activity against cucumber downy mildew in vivo ([3]; dose 50 mg/L): 98%; protectant activity against cucumber downy mildew in vivo ([3]; dose 100 mg/L): 100%
N#Cc1c(Cl)c(Cl)c(C#N)c(Nc2ccc([N+](=O)[O-])cc2F)c1Cl [Compound C-27] | – | 100 | inhibition rate against cucumber gray mold [2]: 80%; protectant activity against cucumber downy mildew in vivo ([3]; dose 25 mg/L): 100%; protectant activity against cucumber downy mildew in vivo ([3]; dose 50 mg/L): 100%; protectant activity against cucumber downy mildew in vivo ([3]; dose 100 mg/L): 100%
N#Cc1c(Cl)c(Cl)c(C#N)c(Nc2cc([N+](=O)[O-])ccc2Cl)c1Cl [Compound C-29] | 80 | – | –
N#Cc1c(Cl)c(Cl)c(C#N)c(Nc2ccc(Cl)cc2[N+](=O)[O-])c1Cl [Compound C-33] | 100 | 100 | –

Source: patent US8937072B2, “Substituted cyanoaniline compounds, preparation and use thereof” (Sinochem Corporation, priority 2011, dated 2015)
